Assay results: patent publication US20240018158A1, “BRM TARGETING COMPOUNDS AND ASSOCIATED METHODS OF USE” (Prelude Therapeutics Incorporated, priority 2020, published 2024)

Assays:
SMARCA2 = SMARCA2 (Homo sapiens (Human), UniProt P51531); assay: In Cell Western SMARCA2 degradation in NCIH520 cells; type: cell-based; details: for DC50: read-out: DC50 (SM2_H520) SMARCA2 degradation potency
Protocol: Compound titration and cell culture: Compounds were dissolved in DMSO to make 10 mM stock and 3-fold series dilutions were further conducted keeping the highest concentration 10 μM. NCIH1693 and NCIH520 cells were maintained in PRMI 1640 medium (Corning Cellgro, Catalog #:10-040-CV) supplemented with 10% v/v FBS (GE Healthcare, Catalog #: SH30910.03) by splitting 1:3 twice a week.
To determine SMACRA2 and SMARCA4 protein degradation DC50 values in NCIH1693 and NCIH520 cells by In Cell Western (ICW) analysis. Cells were trypsinized and 30 thousand cells/well were seeded into 384-well plates and were allowed to grow for 5 hours at 37° C. Eight-point, 3-fold serial dilutions of compounds from 10 mM stocks were added to the cells (using digital Dispenser D300-Tecan, keeping highest concentration 10 μM and normalizing with DMSO at the highest dispensed volume). Plates were incubated at 37° C. for overnight (maximum 18 hours). Cells incubated with DMSO was used as a vehicle control.
To perform In Cell Western, medium was removed from all the wells leaving cells attached to the surface. After removing the medium, cells were fixed within the plates with 40 μL of 4% formaldehyde by incubating at room temperature for 30 minutes, and then permeabilized with wash buffer (1×PBS with 0.1% Triton X-100) by washing the plate 5 times with 50 μL/well. Before labeling with primary antibodies, cells were blocked with 30 μL/well of blocking buffer (Licor Odyssey blocking buffer PBS #927-40000) for 30 minutes at room temperature. To measure SMARCA2 or SMARCA4 proteins, cells were labeled with 20 μL/well of anti SMARCA2 or SMACRA4 antibodies (Cell Signaling BRM #11966S 1:1000, Cell Signaling BRG #49360S 1:1000) diluted in Li-Cor Odyssey blocking buffer-PBS #927-40000, followed by overnight incubation at 4° C.
The next day, plates were washed 5×5 minutes with 50 μL/well of washing buffer to remove all the excess primary antibody and then 20 μL from a mixture of secondary antibody and fluorescent DNA specific dye (Goat anti rabbit 1:500 IRDye-800CW #92632211, and DRAQ5™ 1:2000-#ab108410) was added to each well. Plates were incubated for 1 hour at room temperature with gentle rocking. Cells were washed 5 times with 50 μL/well wash buffer, followed by one last wash with DI water, followed by 10 mins drying at 37° C. oven before scanning. Plates were scanned using Li-Cor Odyssey CLx imaging system to acquire integrated intensities at 700 nm and 800 nm. SMARCA signals were normalized to total cell count and then these normalized values were used to calculate the percent degradation relative to DMSO control and maximum inhibition. DC50s were calculated by using the GraphPad Prism4 program based on sigmoidal dose response equation ([Inhibitor] vs. normalized response−Variable slope).

[1] = target: bromo domain of SMARCA4 protein (Homo sapiens (Human), UniProt P40337+P51532); assay: SMARCA4 bromodomain ternary binding TR-FRET assay (with VCB); details: with saturating VCB (5 μM); read-out: IC50 (SM4_T) ternary binding potency in SMARCA4 FRET assay
Chain of bromo domain of SMARCA4 protein (P51532 whole entry, looked up, the tested form may be a part): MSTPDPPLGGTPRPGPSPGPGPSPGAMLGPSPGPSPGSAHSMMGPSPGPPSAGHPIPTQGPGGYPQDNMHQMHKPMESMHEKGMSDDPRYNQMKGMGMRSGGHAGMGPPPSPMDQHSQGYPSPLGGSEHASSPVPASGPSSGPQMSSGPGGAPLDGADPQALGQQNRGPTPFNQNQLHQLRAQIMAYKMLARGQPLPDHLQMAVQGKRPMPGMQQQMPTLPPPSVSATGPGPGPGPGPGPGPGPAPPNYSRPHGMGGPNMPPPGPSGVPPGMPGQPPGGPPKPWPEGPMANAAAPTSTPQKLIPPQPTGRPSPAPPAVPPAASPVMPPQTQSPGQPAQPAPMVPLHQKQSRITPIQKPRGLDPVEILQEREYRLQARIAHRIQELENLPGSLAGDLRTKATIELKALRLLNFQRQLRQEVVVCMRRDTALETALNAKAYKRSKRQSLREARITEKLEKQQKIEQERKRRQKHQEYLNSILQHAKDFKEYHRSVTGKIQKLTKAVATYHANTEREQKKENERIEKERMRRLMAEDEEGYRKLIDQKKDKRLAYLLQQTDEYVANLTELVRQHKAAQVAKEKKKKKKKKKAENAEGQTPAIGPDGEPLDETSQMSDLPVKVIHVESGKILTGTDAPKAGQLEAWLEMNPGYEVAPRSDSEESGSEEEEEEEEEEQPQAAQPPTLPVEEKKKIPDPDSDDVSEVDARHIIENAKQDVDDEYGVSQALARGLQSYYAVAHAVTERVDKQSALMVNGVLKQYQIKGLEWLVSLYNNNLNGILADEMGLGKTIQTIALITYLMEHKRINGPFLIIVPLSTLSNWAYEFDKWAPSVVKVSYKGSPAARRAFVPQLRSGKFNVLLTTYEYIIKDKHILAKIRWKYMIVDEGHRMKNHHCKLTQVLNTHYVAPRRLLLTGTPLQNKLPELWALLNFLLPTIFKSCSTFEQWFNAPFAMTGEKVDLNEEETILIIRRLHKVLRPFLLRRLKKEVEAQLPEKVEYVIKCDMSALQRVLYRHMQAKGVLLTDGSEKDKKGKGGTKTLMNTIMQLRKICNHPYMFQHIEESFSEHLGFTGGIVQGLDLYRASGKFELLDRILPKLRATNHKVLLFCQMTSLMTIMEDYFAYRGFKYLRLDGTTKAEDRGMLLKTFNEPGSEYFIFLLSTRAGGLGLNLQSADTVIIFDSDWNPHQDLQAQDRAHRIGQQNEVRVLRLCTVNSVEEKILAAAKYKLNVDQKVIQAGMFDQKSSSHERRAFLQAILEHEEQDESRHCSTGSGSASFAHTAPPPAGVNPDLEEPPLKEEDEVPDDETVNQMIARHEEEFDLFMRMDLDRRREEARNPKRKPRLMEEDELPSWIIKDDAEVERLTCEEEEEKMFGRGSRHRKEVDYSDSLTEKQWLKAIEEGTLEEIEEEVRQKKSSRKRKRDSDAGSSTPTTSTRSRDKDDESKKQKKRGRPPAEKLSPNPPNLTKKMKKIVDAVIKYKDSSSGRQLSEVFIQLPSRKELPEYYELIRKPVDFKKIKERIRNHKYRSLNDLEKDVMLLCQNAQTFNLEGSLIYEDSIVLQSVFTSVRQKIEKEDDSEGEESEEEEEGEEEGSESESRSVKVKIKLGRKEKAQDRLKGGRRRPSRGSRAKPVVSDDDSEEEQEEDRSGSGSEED
Chain of bromo domain of SMARCA4 protein (P40337 whole entry, looked up, the tested form may be a part): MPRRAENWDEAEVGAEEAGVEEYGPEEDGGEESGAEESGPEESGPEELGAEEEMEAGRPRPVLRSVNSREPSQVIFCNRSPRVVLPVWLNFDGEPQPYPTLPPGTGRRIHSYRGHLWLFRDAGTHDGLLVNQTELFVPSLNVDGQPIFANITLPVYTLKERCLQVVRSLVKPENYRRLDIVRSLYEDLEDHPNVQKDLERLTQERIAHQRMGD
Chain of bromo domain of SMARCA4 protein (Q15370 whole entry partner, looked up, the tested form may be a part): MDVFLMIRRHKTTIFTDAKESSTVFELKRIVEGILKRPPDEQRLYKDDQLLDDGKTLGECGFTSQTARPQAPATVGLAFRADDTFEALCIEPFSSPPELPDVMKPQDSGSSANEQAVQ
Chain of bromo domain of SMARCA4 protein (Q15369 whole entry partner, looked up, the tested form may be a part): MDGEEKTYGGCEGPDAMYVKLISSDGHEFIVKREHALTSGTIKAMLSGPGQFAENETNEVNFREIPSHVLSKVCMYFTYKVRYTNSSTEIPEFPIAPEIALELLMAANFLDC
Protocol: Recombinant bromo domain of SMARCA4 protein, was purchased from Active Motif (31401). The inhibitory activity of compounds was evaluated in vitro using TR-FRET assay with white 384-well low volume microplate (PerkinElmer ProxiPlate Plus), in which the compound competes the same binding site with the ligand, and thus lead to dose-dependent TR-FRET signal reduction. The cooperativity of the compounds for ternary complex formation with E3 ligase was evaluated in the absence or presence of saturating concentrations of VCB. Testing compounds were dissolved in DMSO at 10 mM and tested in 9-point IC50 mode. The assay mixture was prepared by mixing SMARCA4 (20 nM final), biotinylated probe (25 nM final), and assay buffer or VCB (5 μM) in 1×AlphaLISA Epigenetics Buffer (PerkinElmer AL008F) with 1 mM TCEP. The compounds of interest in DMSO were added to each well in 3-fold serial dilution by dispenser (TECAN D300E). and incubate for 20 minutes at room temperature before addition of detection reagents, Lance Eu W1024 anti-6×His (0.6 nM final, PerkinElmer AD0110) and Streptavidin Surelight APC (6 nM final, PerkinElmer CR130-100). The plate was then sealed and further incubated at 4° C. overnight in dark, and then was read by Envision multimode plate reader (PerkinElmer, 2102-0010). The ratio of florescence signal at 665/620 was used in data analysis. Percentage inhibition was calculated by % inhibition=100×(FDMSO-F)/(FDMSO-FPC), in which FDMSO is DMSO control, and FPC is positive control. IC50 values were determined from dose response curve by fitting the percent inhibition against compound concentration using GraphPad Prism software.

Chain of SMARCA2 (P51531 whole entry): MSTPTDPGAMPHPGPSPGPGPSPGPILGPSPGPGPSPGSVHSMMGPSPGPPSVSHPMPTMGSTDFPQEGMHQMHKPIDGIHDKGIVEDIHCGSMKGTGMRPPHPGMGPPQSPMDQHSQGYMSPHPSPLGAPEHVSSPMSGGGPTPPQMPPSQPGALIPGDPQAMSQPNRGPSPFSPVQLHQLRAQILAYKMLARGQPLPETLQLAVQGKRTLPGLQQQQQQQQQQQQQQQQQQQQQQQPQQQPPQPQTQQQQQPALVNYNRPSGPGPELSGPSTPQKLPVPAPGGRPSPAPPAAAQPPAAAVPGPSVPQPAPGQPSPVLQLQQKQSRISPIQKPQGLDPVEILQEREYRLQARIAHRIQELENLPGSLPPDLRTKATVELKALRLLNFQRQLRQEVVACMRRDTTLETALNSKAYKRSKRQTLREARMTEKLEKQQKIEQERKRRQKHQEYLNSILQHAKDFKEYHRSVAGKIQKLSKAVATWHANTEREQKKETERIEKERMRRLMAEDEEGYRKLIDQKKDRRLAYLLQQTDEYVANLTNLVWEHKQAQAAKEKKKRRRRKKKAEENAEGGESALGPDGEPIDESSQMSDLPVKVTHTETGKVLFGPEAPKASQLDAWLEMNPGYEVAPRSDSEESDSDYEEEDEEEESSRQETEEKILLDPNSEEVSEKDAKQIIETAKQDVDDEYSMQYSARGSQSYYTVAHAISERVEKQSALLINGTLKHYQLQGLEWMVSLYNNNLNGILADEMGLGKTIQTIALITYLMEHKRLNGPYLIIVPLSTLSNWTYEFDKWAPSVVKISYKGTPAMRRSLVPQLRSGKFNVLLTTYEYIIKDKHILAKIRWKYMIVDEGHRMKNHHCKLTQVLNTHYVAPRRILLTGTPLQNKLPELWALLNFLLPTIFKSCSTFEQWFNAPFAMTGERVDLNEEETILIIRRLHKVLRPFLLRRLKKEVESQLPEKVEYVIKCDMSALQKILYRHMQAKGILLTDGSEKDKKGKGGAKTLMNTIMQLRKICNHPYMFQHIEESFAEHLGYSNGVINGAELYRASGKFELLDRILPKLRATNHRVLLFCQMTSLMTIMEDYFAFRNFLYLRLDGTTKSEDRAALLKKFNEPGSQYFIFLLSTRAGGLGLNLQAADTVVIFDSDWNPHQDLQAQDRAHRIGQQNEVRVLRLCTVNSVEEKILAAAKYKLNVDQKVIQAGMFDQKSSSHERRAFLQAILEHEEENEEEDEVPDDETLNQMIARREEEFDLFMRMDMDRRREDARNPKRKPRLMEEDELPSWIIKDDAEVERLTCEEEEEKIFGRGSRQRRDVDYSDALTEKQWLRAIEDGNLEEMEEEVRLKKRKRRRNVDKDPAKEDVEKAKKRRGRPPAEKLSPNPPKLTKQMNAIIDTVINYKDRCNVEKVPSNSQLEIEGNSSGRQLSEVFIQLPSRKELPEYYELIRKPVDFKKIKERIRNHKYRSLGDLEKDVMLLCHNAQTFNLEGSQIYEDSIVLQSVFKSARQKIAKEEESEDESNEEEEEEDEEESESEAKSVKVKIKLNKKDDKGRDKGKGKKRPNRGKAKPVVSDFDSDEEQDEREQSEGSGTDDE

| DC50 (SMARCA2; H520 cells, overnight) | IC50 [1] | Dmax (SMARCA2; NCI-H520, overnight, read-out: Dmax % (SM2_H520) maximum SMARCA2 degradation within the concentrations tested) | Dmax % (SM2_H520) maximum SMARCA2 degradation within the concentrations tested (SMARCA2; H520 cells, overnight) | SMILES |
| --- | --- | --- | --- | --- |
| 100 to 1000 nM | < 100 nM |  |  | Cc1ncsc1-c1ccc([C@H](C)NC(=O)[C@@H]2C[C@@H](O)CN2C(=O)[C@@H](NC(=O)CN2CCN3c4cc(-c5ccccc5O)nnc4NCC3C2)C(C)(C)C)cc1 (single isomer, unassigned) [Example 1b] |
| 100 to 1000 nM | 100 to 1000 nM | > 75% |  | Cc1scnc1-c1ccc(CNC(=O)[C@@H]2C[C@@H](O)CN2C(=O)[C@@H](NC(=O)CN2CCN3c4cc(-c5ccccc5O)nnc4NCC3C2)C(C)(C)C)cc1 (single isomer, unassigned) [Example 2a] |
| 1000 to 10000 nM | < 100 nM |  | A (A = Dmax > 75%) | Cc1scnc1-c1ccc(CNC(=O)[C@@H]2C[C@@H](O)CN2C(=O)[C@@H](NC(=O)CN2CCN3c4cc(-c5ccccc5O)nnc4NCC3C2)C(C)(C)C)cc1 (single isomer, unassigned) [Example 2b] |
